Experimental data: patent US20020068712A1, “Use of decreasing levels of functional transient receptor potential gene product” (priority 1999, published 2002)

What was measured:
Type in all cases: cell-based, rat
RPAECs [1] = experiment: Assessment of filamentous actin arrangement (confocal microscopy)
Protocol: Experiments to determine filamentous actin (F-actin) arrangement were conducted in parallel with those assessing endothelial cell shape. […] were seeded onto glass coverslips, and F-actin was stained with Oregon Green-phalloidin (Molecular Probes) with a standard fixation and staining protocol. Cells were analyzed by confocal microscopy (excitation at 496 nm and emmision at 520 nm). Micrographs were taken at multiple cellular depths (0.3-μm steps, 13-15 sections) and were used to deduce the microfilamentous cytoskeleton configurations of the cells.

RPAECs [2] = experiment: Whole cell patch clamp determination of store-operated Ca2+ entry
Protocol: Whole cell patch clamp was utilized to measure transmembrane ion flux in thapsigargin-stimulated RPAECs. Confluent RPAECs were enzyme dispersed, seeded onto 35-mm plastic culture dishes, and then allowed to reattach for at least 24 h before patch-clamp experiments were performed. […] These cells were chosen for study because their morphology was consistent with RPAECs from a confluent monolayer. The extracellular and pipette solutions were composed of the following (in mM): 1) extracellular: 110 tetraethylammonium aspartate, 10 calcium aspartate, 10 HEPES, and 0.5 3,4-diaminopyridine; and 2) pipette: 130 N-mehyl-D-glucamine, 1.15 EGTA, 10 HEPES, 1 Ca(OH)2, and 2 Mg^2+-ATP. Both solutions were adjusted to 290-300 mosM with sucrose and pH 7.4 with methane sulfonic acid, and [Ca^2+]i was estimated as 100 nM (10). The pipette resistance was 2-5 MΩ. Data were obtained with a HEKA EPC9 amplifier (Lambrecht/Pfaltz) and sampled on-line with Pulse+Pulsefit software (HEKA). All recordings were made at room temperature (22° C.). To generate current-voltage (I-V) relationships, voltage pulses were applied from −100 to +100 mV in 20-mV increments, with a 200-ms duration during each voltage step and a 2-s interval between steps. The holding potential between each step was 0 mV.

RPAECs [3] = experiment: [Ca2+]i measurement by fura 2 fluorescence
Protocol: RPAECs were seeded onto chambered glass coverslips (Nalge Nunc, Naperville, Ill.) and grown to confluence. [Ca^2+]i was estimated with the Ca^2+-sensitive fluorophore fura 2-AM (Molecular Probes, Eugene, Oreg.) according to methods previously described by our laboratory (38). Because this is the first report of [Ca^2+]i measurements in cultured RPAECS, a summary of the technique will be presented. RPAECs were washed with 2 ml of a HEPES (Fisher Scientific, Atlanta, Ga.)-buffered physiological salt solution (PSS) containing (in g/l) 6.9 NaCl, 0.35 KCl, 0.16 KH2PO4, 0.141 MgSO4, 2.0 D-glucose, and 2.1 NaHCO3. The loading solution (1 ml) consisted of PSS plus 3 μM fura 2-AM, 3 μl of a 10% pluronic acid solution, and 2 mM or 100 nM CaCl2. RPAECs were fura loaded for 20 min in a CO2 incubator at 37° C. After this loading period, the cells were again washed with PSS (2 ml) and treated with deesterification medium (PSS+2 mM or 100 nM CaCl2) for an additional 20 min. After deesterification, [Ca^2+]i was assessed with an Olympus 1×70 inverted microscope at ×400 with a xenon arc lamp photomultiplier system (Photon Technologies, Monmouth Junction, N.J.), and data were acquired and analyzed with PTI Felix software. Epifluorescence (signal averaged) was measured from three to four endothelial cells in a confluent monolayer, and the changes in [Ca^2+]i are expressed as the fluorescence ratio of the Ca^2+-bound (340-nm) to Ca^2+-unbound (380-nm) excitation wavelengths emitted at 510 nm.

RPAECs [4] = experiment: Assessment of endothelial cell shape change (scanning electron micrographs)
Protocol: were seeded onto 35-mm plastic culture dishes and grown to confluence. Growth medium was replaced with experimental buffer (same as that used for [Ca^2+]i measurements but without fura 2), and the cells were subjected to one of the following protocols: 1) vehicle control (5 min) in 2 mM or 100 nM extracellular Ca^2+ concentration ([Ca^2+]o); 2) thapsigargin (1 μM, 5 min) in 2 mM or 100 nM ([Ca^2+]o; or 3) thapsigargin in 100 nM [Ca^2+]o+readdition of 2 mM CaCl2 (5 min). At the end of each experiment, the cell monolayers were fixed in 3% gluteraldehyde-PBS for 2 h. The cells were washed two times with 0.1 M cacodylate buffer, dehydrated by immersion in a series of ethanol dilutions, critical point dried in CO2, and covered with 20 nm of gold. Specimens were viewed at […] at a 15° inclination. Scanning electron micrographs were taken of representative areas in the monolayer by a pathologist blinded to the experimental protocols.

[5] = thapsigargin in 100 nM [Ca2+]o, then readdition of 2 mM [Ca2+]o
[6] = thapsigargin-stimulated current, data not shown

Row | SMILES | F-actin arrangement (RPAECs [1]; thapsigargin in low [Ca2+]o, then readdition of 2 mM [Ca2+]o) | F-actin arrangement (RPAECs [1]; thapsigargin, 2 mM [Ca2+]o) | F-actin arrangement (RPAECs [1]; thapsigargin, low (100 nM) [Ca2+]o, compared with low [Ca2+]o alone) | net inward current stimulated (RPAECs [2]; 1 μM thapsigargin in pipette, at −80 mV) [pA/pF] | slope conductance (RPAECs [2]; 1 μM thapsigargin in pipette, calculated from −100 to −20 mV without respect to cell capacitance) [nS] | effect on I-V curve (RPAECs [2]; 1 μM thapsigargin in pipette, whole cell, 3-5 min) | [Ca2+]i response (fura 2 340/380 fluorescence ratio) (RPAECs [3]; thapsigargin 1 μM, 2 mM [Ca2+]o) | [Ca2+]i response after readdition of [Ca2+]o (RPAECs [3]; [5]) | peak and sustained plateau phases of [Ca2+]i response (RPAECs [3]; thapsigargin, 100 nM [Ca2+]o) | endothelial cell shape / intercellular gaps (RPAECs [4]; thapsigargin 1 μM, 5 min, 100 nM [Ca2+]o) | endothelial cell shape / intercellular gaps (RPAECs [4]; thapsigargin 1 μM, 5 min, 2 mM [Ca2+]o) | endothelial cell shape / intercellular gaps (RPAECs [4]; [5]) | effect on inward current at negative voltages (RPAECs [2]; [6]) | effect on outward current at positive voltages (RPAECs [2]; [6])
1 | C/C=C(/C)C(=O)O[C@H]1C(C)=C2[C@H]([C@@H]1OC(=O)CCCCCCC)[C@@](C)(OC(C)=O)C[C@H](OC(=O)CCC)[C@@]1(O)[C@H]2OC(=O)[C@@]1(C)O [Thapsigargin, thapsigargin] | appearance of dense, transcellular fibers and a decrease in peripheral F-actin staining | a decrease in peripheral F-actin density and an increase in the number and/or density of central transcellular F-actin filaments | only modest changes in F-actin arrangements | 5.45±0.90 | 1.64 | right shifted the I-V curve and increased the current magnitude | gradual increase in [Ca^2+]i to a peak level followed by a modest decline | immediate increase in [Ca^2+]i | significantly attenuated | little change in morphology and a lack of interendothelial gaps | endothelial cell retraction and intercellular gap formation | pronounced cell retraction and gap formation |  | 
2 | O=C(O)c1ccccc1Nc1ccccc1 [N-phenylanthranilic acid] |  |  |  |  |  |  |  |  |  |  |  |  | little effect | strongly attenuated
